Reference: article PMC10891769, “Chirality and Rigidity in Triazole-Modified Peptidomimetics Interacting with Neuropilin-1” (Pharmaceuticals, 2024)
Values joined by “and” are separate entries in the source; they are usually repeats but may differ in a detail not shown here. Equal entries are not always repeated. No end group written: not given here.

Molecular target: T1, recombinant human NRP-1 (hNRP-1) (Homo sapiens, UniProt O14786)
T1 construct: purchased BioLegend, San Diego, CA, USA
Assay: chemoluminescence affinity detection: displacement of biotinylated VEGF165A from coated NRP-1
Format: binding
Conditions: VEGF 165A displacement from NRP-1; compounds at 12.5-100 µM; ± standard (fitting) error
Experimental: In this work, a dedicated chemoluminescence affinity detection method was used.
Briefly, the surfaces of flat-bottom polystyrene wells of 96-well plates were coated with human recombinant Neuropilin-1. The wells were then incubated with human biotinylated VEGF165A {h(bt)VEGF} and subsequently with different concentrations of studied compounds, which then competitively bound to the NRP-1 detaching VEGF. The wells were then treated with streptavidin–horseradish peroxidase conjugate and with chemoluminescent substrate. Thus, the obtained color signal was directly proportional to the amount of bound biotinylated VEGF and therefore to the strength of the interaction of studied compounds with NRP-1 competing with VEGF. IC50 was calculated as the concentration at which half of the bound VEGF was detached from NRP-1.
The flat-bottom wells of polystyrene microplates (Nunc Immuno™ MicroWell™ 96 well solid plates) were coated overnight at 4 °C with recombinant human NRP-1 (hNRP-1) (BioLegend, San Diego, CA, USA) at 2 µg/mL. Then, the wells were washed twice with 0.5% Tween20 phosphate-buffered saline (PBS) and subsequently incubated for 2 h at RT with 200 µL of 10.5% BSA in PBS in order to block unspecific binding. The plates were then rinsed with distilled water and were subsequently incubated for 2 h at RT with 50 µL (400 ng/mL) of h(bt)VEGF 165 A (Abcam, Cambridge, UK) in PBS with 4 µg/mL heparine as well as with 50 µL of the studied compounds in PBS in different concentrations (12.5 µM, 25 µM, 50 µM and 100 µM). The plates were rinsed again with distilled water and incubated for 45 min at RT in 100 µL of streptavidin–horseradish peroxidase conjugate in PBS. After one more water rinse, 100 μL chemiluminescent substrate was added. The luminescence was quantified immediately after addition of the substrate. The percentages of inhibition were calculated with the formula 100% − {(S − SN)/(P − NS)} × 100%. S is the intensity of the measured signal, NS is the intensity of the measured signal in the negative control and P is the intensity of the measured signal in the positive control. The positive control was incubated solely with VEGF 165A with no studied compound. Negative control was obtained from wells which were not coated with hNRP-1. All experiments were performed in triplicate. Determination of IC50 was carried out using the nonlinear regression function with Prism (Version 10.1.2, GraphPad software). The standard (fitting) error of the mean was calculated using Prism’s Sy.x function.

T1 sequence (O14786 22-923): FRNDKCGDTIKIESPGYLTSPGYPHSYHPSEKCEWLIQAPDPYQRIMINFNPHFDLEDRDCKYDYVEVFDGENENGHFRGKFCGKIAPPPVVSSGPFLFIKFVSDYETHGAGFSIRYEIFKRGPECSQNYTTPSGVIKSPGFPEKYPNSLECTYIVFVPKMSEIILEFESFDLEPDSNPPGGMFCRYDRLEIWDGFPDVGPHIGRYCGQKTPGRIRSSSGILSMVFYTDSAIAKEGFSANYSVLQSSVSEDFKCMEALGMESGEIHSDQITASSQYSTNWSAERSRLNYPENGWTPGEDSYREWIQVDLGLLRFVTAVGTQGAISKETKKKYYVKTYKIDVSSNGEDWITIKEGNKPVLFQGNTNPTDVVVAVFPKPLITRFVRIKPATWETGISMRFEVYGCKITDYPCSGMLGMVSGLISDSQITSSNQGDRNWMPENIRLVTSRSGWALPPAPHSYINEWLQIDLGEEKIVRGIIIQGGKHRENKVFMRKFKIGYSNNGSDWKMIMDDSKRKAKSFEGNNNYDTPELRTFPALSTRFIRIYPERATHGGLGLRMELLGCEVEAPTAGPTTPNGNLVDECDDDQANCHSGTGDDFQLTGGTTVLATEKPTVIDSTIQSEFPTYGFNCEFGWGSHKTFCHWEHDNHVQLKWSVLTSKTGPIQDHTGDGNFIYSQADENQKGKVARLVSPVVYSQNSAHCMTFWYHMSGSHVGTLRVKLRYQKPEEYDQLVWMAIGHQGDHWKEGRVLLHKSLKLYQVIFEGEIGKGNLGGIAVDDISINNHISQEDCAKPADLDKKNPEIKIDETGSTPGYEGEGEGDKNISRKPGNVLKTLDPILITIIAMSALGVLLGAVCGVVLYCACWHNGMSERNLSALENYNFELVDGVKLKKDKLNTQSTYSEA

| Compound | IC50 |
| --- | --- |
| N=C(N)NCCCC[C@H](N)C(=O)NCCCC[C@@H](N)C(=O)NCc1cn(Cc2cn([C@@H](CCCNC(=N)N)C(=O)O)nn2)nn1 [1D, H-D-Lys(Har)-Gly[Trl]Gly[Trl]Arg-OH] | 63.6 ± 2.3 µM |
| N=C(N)NCCCC[C@H](N)C(=O)NCCCC[C@H](N)C(=O)NCc1cn(Cc2cn([C@@H](CCCNC(=N)N)C(=O)O)nn2)nn1 [1L, H-Lys(Har)-Gly[Trl]Gly[Trl]Arg-OH] | 68.5 ± 3.3 µM |
| CC(C)(NC(=O)[C@@H](N)CCCCNC(=O)[C@@H](N)CCCCNC(=N)N)c1cn(C(C)(C)c2cn([C@@H](CCCNC(=N)N)C(=O)O)nn2)nn1 [3L, H-Lys(Har)-Mba[Trl]Mba[Trl]Arg-OH] | 23 µM and 23.4 µM |
| CC(C)(c1cn([C@@H](CCCNC(=N)N)C(=O)O)nn1)n1cc(CNC(=O)[C@H](N)CCCCNC(=O)[C@@H](N)CCCCNC(=N)N)nn1 [2D, H-D-Lys(Har)-Gly[Trl]Mba[Trl]Arg-OH] | 69.4 ± 4 µM |
| CC(C)(NC(=O)[C@H](N)CCCCNC(=O)[C@@H](N)CCCCNC(=N)N)c1cn(C(C)(C)c2cn([C@@H](CCCNC(=N)N)C(=O)O)nn2)nn1 [3D, H-D-Lys(Har)-Mba[Trl]Mba[Trl]Arg-OH] | 91 µM and 90.5 µM |
| CC(C)(NC(=O)[C@H](N)CCCCNC(=O)[C@@H](N)CCCCNC(=N)N)c1cn(Cc2cn([C@@H](CCCNC(=N)N)C(=O)O)nn2)nn1 [4D, H-D-Lys(Har)-Mba[Trl]Gly[Trl]Arg-OH] | 36 µM and 35.6 µM |
| ATWLPPR [A7R, ATWLPPR, reference compound] | 31.2 ± 4.2 µM |
| CC(C)(c1cn([C@@H](CCCNC(=N)N)C(=O)O)nn1)n1cc(CNC(=O)[C@@H](N)CCCCNC(=O)[C@@H](N)CCCCNC(=N)N)nn1 [2L, H-Lys(Har)-Gly[Trl]Mba[Trl]Arg-OH] | 87.5 ± 3.3 µM |
